The assay addresses T1, human Oxytocin-1 (hOT) receptor (Homo sapiens, UniProt P30559).
T1 construct: expressed in transfected cells
T1 sequence (P30559 1-389): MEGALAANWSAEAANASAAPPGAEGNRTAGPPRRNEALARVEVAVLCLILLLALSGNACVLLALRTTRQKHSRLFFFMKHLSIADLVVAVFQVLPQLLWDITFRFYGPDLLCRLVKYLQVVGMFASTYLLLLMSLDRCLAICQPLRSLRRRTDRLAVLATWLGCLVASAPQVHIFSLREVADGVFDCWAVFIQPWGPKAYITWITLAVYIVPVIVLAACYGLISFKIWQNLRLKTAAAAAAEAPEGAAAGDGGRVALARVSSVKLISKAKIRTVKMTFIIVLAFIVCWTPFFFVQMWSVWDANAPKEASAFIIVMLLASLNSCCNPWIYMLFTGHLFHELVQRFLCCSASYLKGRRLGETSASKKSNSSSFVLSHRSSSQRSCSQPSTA
The assay is described as follows: Determination of antagonist affinity at human Oxytocin-1 receptors using FLIPR (Assay 1). The assay is classed as cell-based. The note with it: CHO-hOT cells, [Ca2+]i response to oxytocin (EC80); mean, n>=3; read-out: hOT FLIPR fpKi mean. The protocol:
Determination of Antagonist Affinity at Human Oxytocin-1 Receptors Using FLIPR
Adherent Chinese Hamster Ovary (CHO) cells, stably expressing the recombinant human Oxytocin-1 (hOT) receptor, were maintained in culture in DMEM:F12 medium (Sigma, cat no D6421), supplemented with 10% heat inactivated foetal calf serum (Gibco/Invitrogen, cat. no. 01000-147), 2 mM L-glutamine (Gibco/Invitrogen, cat. no. 25030-024) and 0.2 mg/ml G418 (Gibco/Invitrogen, cat no. 10131-027). Cells were grown as monolayers under 95%:5% air:CO2 at 37° C. and passaged every 3-4 days using TrypLE™ Express (Gibco/Invitrogen, cat no. 12604-013).
Measurement of [Ca^2+]i Using the FLIPR™
CHO-hOT cells were seeded into black walled clear-base 384-well plates (Nunc) at a density of 10,000 cells per well in culture medium as described above and maintained overnight (95%:5% air:CO2 at 37° C.). After removal of culture medium, cells were incubated for 1 h at 37° C. in Tyrode's medium (NaCl, 145 mM; KCl, 2.5 mM; HEPES, 10 mM; Glucose, 10 mM; MgCl2, 1.2 mM; CaCl2, 1.5 mM) containing probenacid (0.7 mg/ml), the cytoplasmic calcium indicator, Fluo-4 (4 uM; Teflabs, USA) and the quenching agent Brilliant Black (250 uM; Molecular Devices, UK). Cells were then incubated for an additional 30 min at 37° C. with either buffer alone or buffer containing OT antagonist, before being placed into a FLIPR™ (Molecular Devices, UK) to monitor cell fluorescence (λex=488 nm, λEM=540 nm) before and after the addition of a submaximal concentration of oxytocin (EC80).
Functional responses using FLIPR were analysed using Activity Base Version 5.0.10. Data are reported as mean values, wherein number of times tested (n) is greater than or equal to 3.
Regarding `CCC(CC)[C@@H]1C(=O)N[C@H](C2Cc3ccccc3C2)C(=O)N1[C@@H](C(=O)N1CCOCC1)c1ccc(C)nc1C` [Example 5, (3R,6R)-3-(2,3-Dihydro-1H-inden-2-yl)-1-[(1R)-1-(2,6-dimethyl-3-pyridinyl)-2-(4-morpholinyl)-2-oxoethyl]-6-(1-ethylpropyl)-2,5-piperazinedione], the Ki is at most 0.398 nM.
For `CCC(CC)[C@@H]1C(=O)N[C@H](C2Cc3ccccc3C2)C(=O)N1[C@@H](C(=O)N1CCOCC1)c1coc(C)n1` [Example 9, (3R,6R)-3-(2,3-Dihydro-1H-inden-2-yl)-6-(1-ethylpropyl)-1-[(1R)-1-(2-methyl-1,3-oxazol-4-yl)-2-(4-morpholinyl)-2-oxoethyl]-2,5-piperazinedione], the Ki fell in the range of 0.501 to 1.58 nM.
With `CCC(CC)[C@@H]1C(=O)N[C@H](C2Cc3ccccc3C2)C(=O)N1[C@@H](C(=O)NC)c1ccc(C)nc1` [Example 1, (2R)-2-[(3R,6R)-3-(2,3-Dihydro-1H-inden-2-yl)-6-(1-ethylpropyl)-2,5-dioxo-1-piperazinyl]-N-methyl-2-(6-methyl-3-pyridinyl)ethanamide] the figure was 2 to 6.31 nM; with `Cc1ccc([C@H](C(=O)N(C)C)N2C(=O)[C@@H](C3Cc4ccccc4C3)NC(=O)[C@H]2CC(C)C)cn1` [Comparator X, (2R)-2-[(3R,6R)-3-(2,3-dihydro-1H-inden-2-yl)-6-isobutyl-2,5-dioxopiperazin-1-yl]-N,N-dimethyl-2-(6-methylpyridin-3-yl)ethanamide, reference compound], 7.94 to 25.1 nM; with `CCC(CC)[C@@H]1C(=O)N[C@H](C2Cc3ccccc3C2)C(=O)N1[C@@H](C(=O)N1CCOCC1)c1ccc2c(cnn2C)c1` [Example 8, (3R,6R)-3-(2,3-Dihydro-1H-inden-2-yl)-6-(1-ethylpropyl)-1-[(1R)-1-(1-methyl-1H-indazol-5-yl)-2-(4-morpholinyl)-2-oxoethyl]-2,5-piperazinedione], at most 0.398 nM.
The value for `Cc1nc([C@H](C(=O)N2CCOCC2)N2C(=O)[C@@H](C3Cc4ccccc4C3)NC(=O)[C@H]2CC(C)C)co1` [Comparator Y, (3R,6R)-3-(2,3-dihydro-1H-inden-2-yl)-1-[(1R)-1-(2-methyl-1,3-oxazol-4-yl)-2-(4-morpholinyl)-2-oxoethyl]-6-(2-methylpropyl)-2,5-piperazinedione, reference compound] was 31.6 to 100 nM.
The value for `CCC(CC)[C@@H]1C(=O)N[C@H](C2Cc3ccccc3C2)C(=O)N1[C@@H](C(=O)N(C)C)c1ccc(C)nc1` [Example 2, (2R)-2-[(3R,6R)-3-(2,3-Dihydro-1H-inden-2-yl)-6-(1-ethylpropyl)-2,5-dioxo-1-piperazinyl]-N,N-dimethyl-2-(6-methyl-3-pyridinyl)ethanamide] was 0.501 to 1.58 nM.
With `CCC(CC)[C@@H]1C(=O)N[C@H](C2Cc3ccccc3C2)C(=O)N1[C@@H](C(=O)N(C)C)c1ccc2c(cnn2C)c1` [Example 7, (2R)-2-[(3R,6R)-3-(2,3-Dihydro-1H-inden-2-yl)-6-(1-ethylpropyl)-2,5-dioxo-1-piperazinyl]-N,N-dimethyl-2-(1-methyl-1H-indazol-5-yl)ethanamide], the Ki was at most 0.398 nM.
The value for `CCC(CC)[C@@H]1C(=O)N[C@H](C2Cc3ccccc3C2)C(=O)N1[C@@H](C(=O)NC)c1ccc2c(cnn2C)c1` [Example 6, (2R)-2-[(3R,6R)-3-(2,3-Dihydro-1H-inden-2-yl)-6-(1-ethylpropyl)-2,5-dioxo-1-piperazinyl]-N-methyl-2-(1-methyl-1H-indazol-5-yl)acetamide] was at most 0.398 nM; that for `CCC(CC)[C@@H]1C(=O)N[C@H](C2Cc3ccccc3C2)C(=O)N1[C@@H](C(=O)N(C)C)c1ccc(C)nc1C` [Example 4, (2R)-2-[(3R,6R)-3-(2,3-Dihydro-1H-inden-2-yl)-6-(1-ethylpropyl)-2,5-dioxo-1-piperazinyl]-2-(2,6-dimethyl-3-pyridinyl)-N,N-dimethylethanamide] was 0.501 to 1.58 nM.
With `CCC(CC)[C@@H]1C(=O)N[C@H](C2Cc3ccccc3C2)C(=O)N1[C@@H](C(=O)NC)c1ccc(C)nc1C` [Example 3, (2R)-2-[(3R,6R)-3-(2,3-Dihydro-1H-inden-2-yl)-6-(1-ethylpropyl)-2,5-dioxo-1-piperazinyl]-2-(2,6-dimethyl-3-pyridinyl)-N-methylethanamide] the figure was 0.501 to 1.58 nM.

The values are drawn from US20070185162A1, “Substituted diketopiperazines as oxytocin receptor antagonists” (Koninklijke Philips Electronics, N.V., priority 2004, published 2007).
